The values below come from patent US11261210B2, “Glycosylated antitumor ether lipids as novel cancer stem cell cytotoxic agents” (UNIVERSITY OF MANITOBA, priority 2012, dated 2022).

Data set [1] relates to BT-474 stem cell tumorspheres. Description: Viability of BT-474 stem cell tumorspheres (MTS assay). The class given is cell-based, human. The settings on record: for Viability (% 0f control) / loss of viability / toxicity against the cancer stem cells: 6 days; for Viability (% 0f control): Table 2; for toxicity against the cancer stem cells: BT-474 spheroids. The protocol:
FIG. 6. Effect of β-O-Gln, α-O-Gln, β-C-Gln and ET-18-OCH3 on the viability of BT-474 stem cell tumorspheres. BT-474 cancer stem cells were grown for 7 days in ultra low adhesion 6 well plates. The tumorspheres formed were harvested, trypsinised and cell numbers were determined. Equal numbers of cells were dispersed into 48-well plates in mammocult medium and incubation was under static conditions. Wells with only medium but no cells were treated in an identical manner to serve as blanks. After spheres were formed, β-O-Gln, α-O-Gln, β-C-Gln or ET-18-OCH3 (0, 10, 20, 30 μM) were added and incubation was for a total of 6 days. At the end of the incubation, the MTS reagent was added to each well and the plates were rotated on a Nutator mixer in a 5% CO2 incubator for 4 h. The absorbance of each well was read at 470 nm. The results are the means±standard deviation of 4 independent determinations.
(§1) Cell viability assay: Cell viability was determined by the Cell Titre 96 Aqueous One solution proliferation assay ((MTS assay; Promega) according to the instructions of the manufacturer.
The viability of the material at the end of the incubation was determined using the MTS assay. […] In cells incubated with 10 μM of β-C-Gln, 90% of the cells were not viable. […] In contrast, in experiments with ET-18-OCH3, 10 or 20 μM ET-18-OCH3 had little effect on the viability of BT-474 spheroids and at a concentration of 30 μM viability was around 45% relative to controls. The results of the integrity studies correlate well with the viability studies.
We also investigated the effect of α-O-Galn, β-O-Galn or α-O-Mann on the viability of BT-474 spheroids. The spheroids were incubated with the compounds for 6 days and the viability was assessed by the MTS assay. […] Viability was down to around 10% at 10 μM concentration of the compound. […] At a concentration of 30 μM a significant proportion (26-32%) of the BT-474 cancer stem cells were still viable. The cytotoxic efficacy of GAELs is dependent on the type of sugar moiety and the anomeric form in some instances.

Data set [2] concerns JIMT1 stem cell tumorspheres. Description: Viability of JIMT1 stem cell tumorspheres (MTS assay). The class given is cell-based, human. Particulars: 6 days. On the procedure:
FIG. 8. Effect of β-O-Gln, α-O-Gln, β-C-Gln and ET-18-OCH3 on the viability of JIMT1 stem cell tumorspheres. BT-474 cancer stem cells were grown for 7 days in ultra low adhesion 6-well plates. The tumorspheres formed were harvested, trypsinised and cell numbers were determined. Equal numbers of cells were dispersed into 48-well non-treated plates in mammocult medium and incubation was under static conditions. Wells with only medium but no cells were treated in an identical manner to serve as blanks. After spheres were formed, O-Gln, C-Gln or ET-18-OCH3 (0, 10, 20, 30 μM) were added and incubation was for a total of 6 days. At the end of the incubation, the MTS reagent was added to each well and the plates were mixed in a nutator in a 5% CO2 incubator for 4 h. The absorbance of each well was read at 470 nm. The results are the means±standard deviation of 4 independent determinations.
as §1
The viability of cells in spheroids incubated with 20 or 30 μM ET-18-OCH3 was between 30-40% of controls.

Another data set has as its system cancer cell lines. Particulars: Xu et al., ChemMedChem in press; cited from earlier work.
A further data set deals with cancer stem cells. Description: Tumorsphere formation by freshly sorted cancer stem cells. The class given is cell-based, human. The settings on record: added to freshly sorted cancer stem cells, 10 μM and above, 6 days. An excerpt: Breast cancer stem cell enriched cell population was obtained by staining breast cancer cell lines BT-474 and JIMT-1 for aldehyde dehydrogenase 1 (ALDH1) using the assay kit from Stem Cell Technologies (Vancouver BC, Canada) according to the instructions of the manufacturer with the appropriate controls. BT-474 is a ductal carcinoma cell line (Lasfargues E Y, Coutinho W G, Dion A S (1979) A human breast tumor cell line (BT-474) that supports mouse mammary tumor virus replication. In Vitro 15, 723-729) while JIMT-1 is a carcinoma cell line that is resistant to herceptin (Tanner M, Kapanen A J, Junttila T, Raheem O, Grenman S, Elo J, Elenius K, Isola J (2004). Characterization of a novel cell line established from a patient with herceptin-resistant breast cancer. Mol Cancer Ther 3, 1585-1592). Following the staining, the cells stained for ALDH1 were sorted from the bulk population by flow cytometry on a 4 laser MoFloXPP high speed/pressure cell sorter. The cells were pelleted by centrifugation, resuspended in supplemented Mammocult medium (Stem Cell Technologies) and dispersed into ultra-low adhesive 6-well plates or 35 mm dishes for 7 days to allow the formation of spheroids (mammospheres). After 7 days, the spheres were separated from single cells (dead non-stem cells) by sieving the contents of the well through a […] nylon cell strainer (BD Falcon). The spheres retained in the sieve are washed with Hanks buffer and subsequently trypsinised to obtain a single cell suspension of cancer stem cells. The cell numbers were determined with a Coulter ZM counter and the cells were seeded into the appropriate low adhesion tissue culture ware for various studies.
AEL solutions in ethanol were diluted into supplemented mammocult medium generally at twice the desired final concentration. A volume equal to that in the wells was added to dilute the drug to the desired concentration in each well. Subsequently any further addition of drug to the wells, utilized AEL solution prepared at the desired concentration. […]

Data set [3] is described as follows: Generation of large acidic vacuoles. The class given is cell-based. From the text: Autophagy 5, 835-84663). Furthermore an active endocytosis pathway was essential for GAEL activity (Samadder P, Byun H-S, Bittman R, Arthur G (2011) The endocytosis pathway is required for the cytotoxic effects of glycosylated antitumor ether lipids, Anticancer Res 31, 3809-3818). The generation of the large acidic vacuoles is a hallmark of this non-apoptosis death pathway induced by GAELs.

The test system of a further data set is BT-474 cancer stem cells. Description: BT-474 cancer stem cell spheroid formation. The class given is cell-based, human. Particulars: BT474 cancer stem cells, FIG. 1B. The protocol: FIG. 1. A. Effect of β-C-Gln (β-AC1) on BT-474 cancer stem cell spheroid formation. BT-474 cancer stem cells were obtained by staining BT474 cells for ALDH1 and sorting the stained from unstained cells by flow cytometry. The ALDH1 stained cells were grown in ultra-low adhesion 6-well plates in mammocult medium for 7 days. The spheroids were isolated and trypsinised to generate single cells. The cells were then seeded for 2 days in ultra-low adhesion 6-well plates, and subsequently incubated in the absence or presence of C-Gln for up to 12 days. The media was replenished after 6 days. B. Effect of β-O-Gln (β-AO1), α-O-Gln (α-AO1), or ET-18-OCH3 on BT-474 cancer stem cell spheroid formation.
Breast cancer stem cell enriched cell population was obtained by staining breast cancer cell lines BT-474 and JIMT-1 for aldehyde dehydrogenase 1 (ALDH1) using the assay kit from Stem Cell Technologies (Vancouver BC, Canada) according to the instructions of the manufacturer with the appropriate controls. […] The cell numbers were determined with a Coulter ZM counter and the cells were seeded into the appropriate low adhesion tissue culture ware for various studies. […]

The next data set has as its system BT474 cancer stem cells. Description: Trypan blue dye exclusion viability of BT474 cancer stem cells. The settings on record: BT474 cancer stem cells incubated with compound. The class given is cell-based, human. The protocol: Trypan blue dye exclusion assay using the TC10 automated cell counter (BioRad) was also used for some studies.
We investigated the effects of the GAELs and the ALPET-18-OCH3 on the ability of the cancer stem cells to form tumorspheres. […] This was a concentration dependent event and at concentrations greater than 10 μM spheroid formation was completely disrupted.

The test system of data set [4] is JIMT-1 stem cell spheroids. Description: Morphology of JIMT-1 stem cell spheroids. The class given is cell-based, human. The settings on record: 6 days, FIG. 7B. On the procedure: FIG. 7. A. Effect of β-O-Gln, β-C-Gln or ET-18-OCH3 on morphology of JIMT-1 stem cell spheroids. B. Effect of β-O-Gln, α-O-Gln or ET-18-OCH3 on morphology of JIMT-1 stem cell spheroids. JIMT-1 cancer stem cells were grown for 7 days in ultra low adhesion 6 well plates. The tumorspheres formed were harvested, trypsinised and cell numbers were determined. Equal numbers of cells were dispersed into 48-well non-treated plates in mammocult medium and incubated in a CO2 incubator under static conditions. After spheres were formed, O-Gln, C-Gln or ET-18-OCH3 were added (0, 10, 20 and 30 μM) and incubation was for a total of 6 days with media supplementation after 3 days. Images for FIG. 7A were taken at day 0 and after 72 h following addition of the compounds. Images for FIG. 7B were taken after 6 days incubation with the compounds.
The above studies were repeated with JIMT-1 spheroids.

`CCCCCCCCCCCCCCCCCCOCC(COP(=O)([O-])OCC[N+](C)(C)C)OC` (stereo not shown) [ET-18-OCH3, 1-O-octadecyl-2-O-methyl-glycerophosphocholine, reference compound]: in data set [1] (Homo sapiens, BT-474, 144 h, read-out: viability relative to controls), the viability at 30 µM is ~45%. In addition, the “viability, % of controls” value in data set [2] (20 or 30 μM) is reported as 30-40 % of controls. Further, the cytotoxicity at 10 µM in data set [2] (Homo sapiens, JIMT-1, 144 h, 10 μM, read-out: loss of viability) turned out to be 40%.

With `CCCCCCCCCCCCCCCCOC[C@H](CS[C@H]1O[C@H](CO)[C@@H](O)[C@H](O)[C@H]1N)OC` [α-AS2, 1-O-Hexadecyl-2-O-methyl-3-S-(2′-amino-2′-deoxy-α-D-glucopyranosyl)-sn-glycerol], the “cytotoxicity compared to β-O-Gln (β-AO1)” value in the data set on cancer cell lines is given as “not as active as β-O-Gln”.

`CCCCCCCCCCCCCCCCOC[C@H](COC1O[C@H](CO)[C@H](O)[C@H](O)[C@H]1N)OC` (stereo partly drawn) [α-O-Galn, 1-O-Hexadecyl-2-O-methyl-3-O-(2′-amino-2′-deoxy-D-galactopyranosyl)-sn-glycerol]: the spheroid formation result with cancer stem cells was “unable to form spheroids”. The “Viability (% 0f control)” value is listed as “around 10 % 0f control” in data set [1] (10 μM); 9.64 % 0f control in data set [1] (10 μM, listed as α-Galn); 0 % 0f control in data set [1] (20 μM, listed as α-Galn); 0 % 0f control in data set [1] (30 μM, listed as α-Galn). Besides, the loss of viability result in data set [1] (20 or 30 μM) was “Complete loss of viability”. Moreover, the “toxicity against the cancer stem cells” value in data set [1] is “quite toxic”. Also, the “generation of large acidic vacuoles” value in data set [3] is on record as “generation of these vacuoles”.

Turning to `CCCCCCCCCCCCCCCCOC[C@H](COC1O[C@H](CO)[C@@H](O)[C@H](O)[C@H]1N)OC` (stereo partly drawn) [α-O-Gln, 1-O-Hexadecyl-2-O-methyl-3-O-(2′-amino-2′-deoxy-D-glucopyranosyl)-sn-glycerol], the spheroid formation entry in the data set on cancer stem cells and with BT-474 cancer stem cells was “unable to form spheroids” each time. The “viability (trypan dye exclusion)” value in the data set with BT474 cancer stem cells was “not viable”. The loss of viability entry in data set [1] (10 μM) is reported as “about 60%”; in data set [1] (20 or 30 μM), “total loss of viability”; in data set [2] (10 μM) it was 90%; in data set [2] (20 or 30 μM), “Complete loss of viability”. For the same compound, the spheroid integrity result in data set [4] was “complete disintegration of the spheroids”. Further, the “generation of large acidic vacuoles” value in data set [3] is listed as “generation of these vacuoles”. Further, the “cytotoxicity compared to β-O-Gln (β-AO1)” value in the data set on cancer cell lines was “superior activity”.

Take `CCCCCCCCCCCCCCCCOCC(CO[C@H]1O[C@H](CO)[C@@H](O)[C@H](O)[C@@H]1N)OC` (stereo partly drawn) [α-O-Mann]: the “Viability (% 0f control)” value in data set [1] (10 μM) came out at 134.3 % 0f control; in data set [1] (20 μM), 58.84 % 0f control; in data set [1] (30 μM, listed as α-Mann) it was 25.9 % 0f control. In data set [1], the “toxicity against the cancer stem cells” value is listed as “not as active as α-O-Galn”.

With `CCCCCCCCCCCCCCCCOC[C@H](CS[C@@H]1O[C@H](CO)[C@@H](O)[C@H](O)[C@H]1N)OC` [β-AS1, 1-O-Hexadecyl-2-O-methyl-3-S-(2′-amino-2′-deoxy-β-D-glucopyranosyl)-sn-glycerol], in the data set with cancer cell lines, the “cytotoxicity compared to β-O-Gln (β-AO1)” value is listed as “not as active as β-O-Gln”.

On to `CCCCCCCCCCCCCCCCOC[C@H](COC1O[C@H](CO)[C@H](O)[C@H](O)[C@H]1N)OC` (stereo partly drawn) [β-O-Galn, 1-O-Hexadecyl-2-O-methyl-3-O-(2′-amino-2′-deoxy-D-galactopyranosyl)-sn-glycerol], for which the “Viability (% 0f control)” value in data set [1] (10 μM, listed as β-Galn) was determined as 153.7 % 0f control; in data set [1] (20 μM, listed as β-Galn) it was 48.0 % 0f control; in data set [1] (30 μM, listed as β-Galn), 32.16 % 0f control. The “toxicity against the cancer stem cells” value in data set [1] is listed as “not as active as α-O-Galn”.
